Reference: ChEMBL document CHEMBL5042522, “One- and Two-Photon Uncaging of Carbon Monoxide (CO) with Real-Time Monitoring: On-Demand Carbazole-Based Dual CO-Releasing Platform to Test over Single and Combinatorial Approaches for the Efficient Regression of Orthotopic Murine Melanoma In Vivo” (J Med Chem, 2022)
Calls of active or inactive are those of the source. The rule behind the calls is not given here.

Key:
[1] = Photorelease activity in PBS buffer at pH 7.4 assessed as release of CO in absence of light irradiation by absorption spectroscopy; format: physicochemical
[2] = Stability of compound in PBS buffer at pH 7.4 at 100 uM incubated for 72 hrs under dark condition in presence of cysteine by Reverse-phase HPLC analysis; format: physicochemical; settings: read-out: Stability
[3] = tested on: B16-F10; test: Antitumor activity against mouse B16-F10 cells bearing C57BL/6J mouse assessed as tumor growth inhibition at 0.4 mg/kg, iv administered alternate days for 24 days followed by irradiation with pulsed laser at 730 nm for 10 mins after 24 hrs each post-injection by slide caliper method; format: functional, organism-based; settings: time 25.0 day
[4] = tested on: HEK293; test: Induction of apoptosis in HEK293 cells assessed as viable cells at 5 uM with light irradiation incubated for 24 hrs by annexin-V-FITC and PI staining based flow cytometry analysis (reference value: 99.9 %); format: functional; settings: Homo sapiens, HEK293, light or radiation study, read-out: Activity
[5] = tested on: HEK293; test: Induction of apoptosis in HEK293 cells assessed as early apoptotic cells at 5 uM incubated for 24 hrs by annexin-V-FITC and PI staining based flow cytometry analysis (reference value: 0.1 %); format: functional, Homo sapiens
[6] = Photorelease activity in PBS buffer at pH 7.4 assessed as release of CO at 500 uM irradiated with pulsed laser at 730 nm for 30 mins by absorption spectroscopy; format: physicochemical; settings: pH 7.4, 0.5 h
[7] = Photorelease activity in PBS buffer at pH 7.4 assessed as MbCO formation by measuring change in absorbance intensity at 500 uM irradiated with >= 365 nm Hg lamp for 30 mins in presence of deoxy-myoglobin by absorption spectroscopy; format: physicochemical; settings: pH 7.4, 0.5 h
[8] = Photorelease ability in PBS buffer at pH 7.4 assessed as retention time of 1,1'-(9-ethyl-9H-carbazole-3,6-diyl)bis(2,2-dihydroxyethanone) formation at 100 uM irradiated with >= 365 nm Hg lamp for 30 mins by RP-HPLC analysis; format: physicochemical; settings: pH 7.4, 0.5 h
[9] = tested on: HEK293; test: Induction of apoptosis in HEK293 cells assessed as necrotic cells at 5 uM with light irradiation incubated for 24 hrs by annexin-V-FITC and PI staining based flow cytometry analysis (reference value: 0 %); format: functional, Homo sapiens
[10] = Photorelease ability in PBS buffer at pH 7.4 assessed as compound decomposition at 100 uM irradiated with >= 365 nm Hg lamp upto 30 mins by UV absorption spectroscopy; format: physicochemical; settings: read-out: Drug degradation
[11] = Toxicity in C57BL/6J mouse model harboring mouse B16-F10 cells assessed as tumor tissue necrosis at 0.4 mg/kg, iv administered alternate days for 24 days followed by irradiation with pulsed laser at 730 nm for 10 mins after 24 hrs each post-injection by hematoxylin and eosin staining based assay; format: organism-based; settings: in vivo, 600 h, 0.73 µM, time 25 day
[12] = Toxicity in C57BL/6J mouse model harboring mouse B16-F10 cells assessed as change in body weight at 0.4 mg/kg, iv administered alternate days for 24 days followed by irradiation with pulsed laser at 730 nm for 10 mins after 24 hrs each post-injection; format: organism-based; settings: in vivo, 600 h, 0.73 µM, time 25 day
[13] = tested on: B16-F10; test: Induction of apoptosis in mouse B16-F10 cells assessed as late apoptotic cells at 5 uM with light irradiation incubated for 24 hrs by annexin-V-FITC and PI staining based flow cytometry analysis (reference value: 0.1 %); format: functional
[14] = tested on: B16-F10; test: Induction of apoptosis in mouse B16-F10 cells assessed as early apoptotic cells at 5 uM with light irradiation incubated for 24 hrs by annexin-V-FITC and PI staining based flow cytometry analysis (reference value: 0 %); format: functional
[15] = Photorelease ability in PBS buffer at pH 7.4 assessed as retention time of compound decomposition at 100 uM irradiated with >= 365 nm Hg lamp for 30 mins by RP-HPLC analysis; format: physicochemical; settings: pH 7.4, 0.5 h
[16] = tested on: B16-F10; test: Antitumor activity against mouse B16-F10 cells bearing C57BL/6J mouse assessed as tumor regression at 0.4 mg/kg, iv administered alternate days for 24 days followed by irradiation with pulsed laser at 730 nm for 10 mins after 24 hrs each post-injection and measured on day 25 by slide caliper method; format: functional, organism-based; settings: time 25.0 day
[17] = Toxicity in C57BL/6J mouse model harboring mouse B16-F10 cells assessed as spleen tissue necrosis at 0.4 mg/kg, iv administered alternate days for 24 days followed by irradiation with pulsed laser at 730 nm for 10 mins after 24 hrs each post-injection by hematoxylin and eosin staining based assay; format: organism-based; settings: in vivo, 600 h, 0.73 µM, time 25 day
[18] = tested on: B16-F10; test: Biodistribution in tumor site of C57BL/6 mouse model harboring mouse B16-F10 cells at 0.4 mg/kg, iv irradiated with >= 365 nm Hg lamp for 10 mins measured after 24 hrs post-administration by fluorescence based assay; format: ADME, organism-based; settings: in vivo, 24.17 h, time 1450 min
[19] = tested on: HEK293; test: Induction of apoptosis in HEK293 cells assessed as late apoptotic cells at 5 uM with light irradiation incubated for 24 hrs by annexin-V-FITC and PI staining based flow cytometry analysis (reference value: 0 %); format: functional, Homo sapiens
[20] = Biodistribution in spleen of C57BL/6 mouse model harboring mouse B16-F10 cells at 0.4 mg/kg, iv irradiated with >= 365 nm Hg lamp for 10 mins measured after 24 hrs post-administration by fluorescence based assay; format: ADME, organism-based; settings: in vivo, 24.17 h, time 1450 min
[21] = tested on: B16-F10; test: Induction of apoptosis in mouse B16-F10 cells assessed as early apoptotic cells at 5 uM incubated for 24 hrs by annexin-V-FITC and PI staining based flow cytometry analysis (reference value: 0 %); format: functional
[22] = tested on: B16-F10; test: Induction of apoptosis in mouse B16-F10 cells assessed as viable cells at 5 uM with light irradiation incubated for 24 hrs by annexin-V-FITC and PI staining based flow cytometry analysis (reference value: 99.9 %); format: functional; settings: B16-F10, light or radiation study, read-out: Activity
[23] = tested on: B16-F10; test: Induction of apoptosis in mouse B16-F10 cells assessed as late apoptotic cells at 5 uM incubated for 24 hrs by annexin-V-FITC and PI staining based flow cytometry analysis (reference value: 0.1 %); format: functional
[24] = Toxicity in C57BL/6J mouse model harboring mouse B16-F10 cells assessed as liver tissue necrosis at 0.4 mg/kg, iv administered alternate days for 24 days followed by irradiation with pulsed laser at 730 nm for 10 mins after 24 hrs each post-injection by hematoxylin and eosin staining based assay; format: organism-based; settings: in vivo, 600 h, 0.73 µM, time 25 day
[25] = tested on: HEK293; test: Induction of apoptosis in HEK293 cells assessed as late apoptotic cells at 5 uM incubated for 24 hrs by annexin-V-FITC and PI staining based flow cytometry analysis (reference value: 0 %); format: functional, Homo sapiens
[26] = tested on: HEK293; test: Induction of apoptosis in HEK293 cells assessed as early apoptotic cells at 5 uM with light irradiation incubated for 24 hrs by annexin-V-FITC and PI staining based flow cytometry analysis (reference value: 0.1 %); format: functional, Homo sapiens
[27] = Photorelease activity in PBS buffer at pH 7.4 assessed as release of CO using 3',6'-Bis(allyloxy)-3H-spiro(isobenzofuran-1,9'-xanthen)-3-one fluorescent probe at 500 uM irradiated with >= 365 nm Hg lamp for 30 mins in presence of PdCl2 by absorption spectroscopy; format: physicochemical; settings: pH 7.4, 0.5 h
[28] = Photorelease ability in PBS buffer at pH 7.4 assessed as compound decomposition at 0.1 mM irradiated with pulsed laser at 730 nm for 30 mins by RP-HPLC analysis; format: physicochemical; settings: read-out: Drug degradation

Structure (SMILES): CCn1c2ccc(-c3coc(=O)o3)cc2c2cc(-c3coc(=O)o3)ccc21
- Drug metabolism [1]: Not Active
- remaining at 72 h, 100 µM [2]: 92%
- Activity [3]: Active
- viability at 5 µM [4]: 46.4%
- Activity [5]: 0.9%
- Drug metabolism [6]: 4.5 ppm
- Drug metabolism [7]: Active
- Retention_time [8]: 8.82 min
- Activity [9]: 0%
- degraded at 0.5 h, 100 µM [10]: 100%
- Activity [11]: Toxic
- Activity [12]: Non-Toxic
- Activity [13]: 15.4%
- Activity [14]: 32.8%
- Retention_time [15]: 6.21 min
- Activity [16]: Active
- Activity [17]: Non-Toxic
- Drug uptake [18]: Active
- Activity [19]: 7.3%
- Drug uptake [20]: Active
- Activity [21]: 1%
- viability at 5 µM [22]: 51.4%
- Activity [23]: 0%
- Activity [24]: Non-Toxic
- Activity [25]: 0.2%
- Activity [26]: 46.3%
- Drug metabolism [27]: 12 ppm
- degraded at 0.5 h, 100 µM [28]: 37%
